What was measured:
[1] = biological target: T1, Lymphocyte Cell-Specific Protein-Tyrosine Kinase (Src family) (LCK) (Homo sapiens, UniProt P06239); assay: SAFETYscan KINOMEscan binding assay; conditions: Inhibitor
T1 construct: host or cells: E. coli BL21-derived host (T7 phage) or HEK-293

[2] = biological target: Cholecystokinin Receptor A (CCKAR) (Homo sapiens, UniProt P32238); assay: SAFETYscan GPCR Calcium Flux; format: cell-based; conditions: read-out: RC50 (the source's name)
[3] = biological target: 5-Hydroxy tryptamine (Serotonin) Receptor 2B (HTR2B) (Homo sapiens, UniProt P41595); assay: SAFETYscan GPCR Calcium Flux; format: cell-based
5-Hydroxy tryptamine (Serotonin) Receptor 2B (HTR2B), sequence (P41595 whole entry): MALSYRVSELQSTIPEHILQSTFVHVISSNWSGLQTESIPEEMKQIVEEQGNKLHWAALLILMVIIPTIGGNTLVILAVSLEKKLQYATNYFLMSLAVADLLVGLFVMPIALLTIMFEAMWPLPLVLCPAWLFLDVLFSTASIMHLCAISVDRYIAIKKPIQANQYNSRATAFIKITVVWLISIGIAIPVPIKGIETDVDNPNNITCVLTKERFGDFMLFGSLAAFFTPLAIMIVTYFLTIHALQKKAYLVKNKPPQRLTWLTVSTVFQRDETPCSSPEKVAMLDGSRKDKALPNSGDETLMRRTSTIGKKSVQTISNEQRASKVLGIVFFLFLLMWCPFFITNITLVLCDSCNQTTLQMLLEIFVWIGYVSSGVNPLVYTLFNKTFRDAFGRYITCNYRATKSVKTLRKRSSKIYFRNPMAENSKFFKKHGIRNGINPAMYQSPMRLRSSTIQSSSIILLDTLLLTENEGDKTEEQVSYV

[4] = biological target: Nuclear Hormone Androgen Receptor (AR) (Homo sapiens, UniProt P10275); assay: SAFETYscan Nuclear Hormone Receptor assay; format: cell-based
Nuclear Hormone Androgen Receptor (AR), sequence (P10275 whole entry): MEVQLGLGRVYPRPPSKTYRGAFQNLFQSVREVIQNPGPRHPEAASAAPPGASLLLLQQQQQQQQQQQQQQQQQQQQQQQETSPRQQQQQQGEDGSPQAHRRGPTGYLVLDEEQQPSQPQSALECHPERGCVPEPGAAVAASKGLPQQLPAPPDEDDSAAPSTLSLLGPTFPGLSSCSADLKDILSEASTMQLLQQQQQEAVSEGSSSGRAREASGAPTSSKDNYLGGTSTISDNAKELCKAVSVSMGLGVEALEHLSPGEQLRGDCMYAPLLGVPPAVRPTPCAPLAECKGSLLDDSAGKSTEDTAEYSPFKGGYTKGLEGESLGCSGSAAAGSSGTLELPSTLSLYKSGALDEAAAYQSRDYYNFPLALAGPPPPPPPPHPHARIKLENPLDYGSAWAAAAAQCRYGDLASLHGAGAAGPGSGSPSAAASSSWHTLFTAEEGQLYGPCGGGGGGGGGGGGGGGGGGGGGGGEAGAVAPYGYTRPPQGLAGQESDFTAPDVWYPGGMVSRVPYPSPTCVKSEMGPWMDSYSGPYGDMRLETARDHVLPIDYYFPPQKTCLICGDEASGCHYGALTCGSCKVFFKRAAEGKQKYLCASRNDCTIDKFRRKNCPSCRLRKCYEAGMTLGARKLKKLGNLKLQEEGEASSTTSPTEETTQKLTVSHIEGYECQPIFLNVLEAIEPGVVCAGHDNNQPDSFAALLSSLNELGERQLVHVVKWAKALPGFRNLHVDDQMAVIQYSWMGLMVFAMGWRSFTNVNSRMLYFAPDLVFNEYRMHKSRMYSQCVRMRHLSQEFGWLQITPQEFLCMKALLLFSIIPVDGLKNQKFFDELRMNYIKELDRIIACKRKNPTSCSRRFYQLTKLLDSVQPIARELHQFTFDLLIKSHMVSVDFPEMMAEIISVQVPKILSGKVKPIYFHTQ

[5] = biological target: Arginine Vasopressin Receptor 1A (AVPR1A) (Homo sapiens, UniProt P37288); assay: SAFETYscan GPCR Calcium Flux; format: cell-based; conditions: read-out: RC50 (the source's name)
Arginine Vasopressin Receptor 1A (AVPR1A), sequence (P37288 whole entry): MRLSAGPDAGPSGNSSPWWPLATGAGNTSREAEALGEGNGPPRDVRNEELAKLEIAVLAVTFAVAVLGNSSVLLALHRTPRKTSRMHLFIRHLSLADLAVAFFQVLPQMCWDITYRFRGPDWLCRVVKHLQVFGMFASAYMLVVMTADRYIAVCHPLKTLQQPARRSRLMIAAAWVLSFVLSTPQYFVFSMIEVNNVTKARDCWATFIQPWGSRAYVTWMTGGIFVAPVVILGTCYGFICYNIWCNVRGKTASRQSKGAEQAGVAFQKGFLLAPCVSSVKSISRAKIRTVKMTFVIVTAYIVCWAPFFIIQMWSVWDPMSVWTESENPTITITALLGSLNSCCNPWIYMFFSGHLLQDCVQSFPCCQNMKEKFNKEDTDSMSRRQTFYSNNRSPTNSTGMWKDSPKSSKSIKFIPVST

[6] = biological target: T2, N-methyl-D-aspartate (NMDA) Glutamate Receptor 1A/2B (NMDAR (1A/2B)) (Homo sapiens, UniProt Q05586+Q13224); assay: SAFETYscan Ion channel assay; format: cell-based
T2 construct: host or cells: unnamed DiscoverX cell line

[7] = system: neurons from the spinal cord; assay: Spinal cord neuron survival; format: cell-based, rat; conditions: in the presence of HU-MCA-13; 48 h in culture
Protocol: We also examined whether HU-MCA-13 would promote the survival of neurons from the spinal cord, by counting the number of neurons remaining after 48 h in culture. From our counts we estimated that 58 ± 10% of the neurons present at 3 h after plating survived for 48 h in the presence of HU-MCA-13, compared with only 35 ± 5% for neurons cultured without HU-MCA-13.
Spinal cords were isolated from adult rats (4–6 months old), and the meninges were removed from the spinal cord. The spinal cord was then cut into small pieces and collected in cold Hibernate A (Brainbits, Springfield, IL, USA), glutamine (0.5 mM), and B27 (Invitrogen, Carlsbad, CA). Briefly, dissected pieces of adult rat spinal cord tissue were maintained in phosphate-buffered saline (PBS) without Ca^2+ and Mg^2+ and pooled together and transferred to an enzymatic dissociation media containing 20 IU/ml papain in Earle’s balanced salt solution (Worthington Biochemical, Freehold, NJ) and incubated for 30 min at 37 °C. […] Neurite outgrowth was measured and presented as mean length of a neurite (microns). To measure neuronal survival, 450 cells were counted in 10 randomly chosen microscope fields of a known area in each of the three dishes per condition using a 20× objective and phase-contrast optics. […]

[8] = biological target: T3, Norepinephrine transporter (NET) (Homo sapiens, UniProt P23975); assay: SAFETYscan Transporter assay; format: cell-based
T3 construct: host or cells: unnamed DiscoverX cell line
T3 sequence (P23975 whole entry): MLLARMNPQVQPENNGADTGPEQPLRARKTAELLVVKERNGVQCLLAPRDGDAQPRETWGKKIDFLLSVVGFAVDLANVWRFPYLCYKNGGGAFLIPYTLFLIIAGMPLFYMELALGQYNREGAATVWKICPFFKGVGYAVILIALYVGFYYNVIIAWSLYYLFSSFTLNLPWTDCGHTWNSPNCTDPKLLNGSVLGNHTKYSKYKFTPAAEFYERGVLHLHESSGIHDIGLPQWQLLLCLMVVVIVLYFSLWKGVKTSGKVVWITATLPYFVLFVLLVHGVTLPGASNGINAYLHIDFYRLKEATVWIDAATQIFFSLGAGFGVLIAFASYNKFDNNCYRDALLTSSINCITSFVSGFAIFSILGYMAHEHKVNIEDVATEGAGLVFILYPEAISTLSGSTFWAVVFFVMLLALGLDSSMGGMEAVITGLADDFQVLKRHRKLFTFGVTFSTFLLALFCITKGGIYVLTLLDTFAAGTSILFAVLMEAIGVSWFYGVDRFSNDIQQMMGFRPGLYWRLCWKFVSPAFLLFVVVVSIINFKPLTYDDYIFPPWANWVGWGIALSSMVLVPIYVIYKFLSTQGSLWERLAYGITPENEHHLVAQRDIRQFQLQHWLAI

[9] = biological target: T4, 5-Hydroxy tryptamine (Serotonin) Receptor 1B (HTR1B) (Homo sapiens, UniProt P28222); assay: SAFETYscan GPCR cAMP; format: cell-based
T4 construct: host or cells: cAMP Hunter cell lines
T4 sequence (P28222 whole entry): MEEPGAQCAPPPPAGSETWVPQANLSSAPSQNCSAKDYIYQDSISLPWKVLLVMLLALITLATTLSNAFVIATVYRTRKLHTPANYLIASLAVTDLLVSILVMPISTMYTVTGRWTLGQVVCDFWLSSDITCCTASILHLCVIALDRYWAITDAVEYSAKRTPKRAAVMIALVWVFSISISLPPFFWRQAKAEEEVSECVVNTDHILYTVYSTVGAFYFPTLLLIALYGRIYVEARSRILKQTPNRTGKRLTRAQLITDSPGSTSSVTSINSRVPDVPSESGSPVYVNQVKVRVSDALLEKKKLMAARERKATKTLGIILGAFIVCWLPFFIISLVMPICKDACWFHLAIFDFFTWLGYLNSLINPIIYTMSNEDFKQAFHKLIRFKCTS

[10] = system: PC12 dopaminergic cell cultures; assay: PC12 neurotropic (neurite outgrowth) assay; format: cell-based, rat
[11] = biological target: Kv7.1/KCNE Potassium voltage-gated channel (KvLQT1/minK) (Homo sapiens, UniProt P51787); assay: SAFETYscan Ion channel assay; format: cell-based; conditions: read-out: RC50 (the source's name)
[12] = biological target: T5, Serotonin transporter (SERT) (Homo sapiens, UniProt P31645); assay: cell-based; conditions: Blocker
T5 construct: host or cells: unnamed DiscoverX cell line
T5 sequence (P31645 whole entry): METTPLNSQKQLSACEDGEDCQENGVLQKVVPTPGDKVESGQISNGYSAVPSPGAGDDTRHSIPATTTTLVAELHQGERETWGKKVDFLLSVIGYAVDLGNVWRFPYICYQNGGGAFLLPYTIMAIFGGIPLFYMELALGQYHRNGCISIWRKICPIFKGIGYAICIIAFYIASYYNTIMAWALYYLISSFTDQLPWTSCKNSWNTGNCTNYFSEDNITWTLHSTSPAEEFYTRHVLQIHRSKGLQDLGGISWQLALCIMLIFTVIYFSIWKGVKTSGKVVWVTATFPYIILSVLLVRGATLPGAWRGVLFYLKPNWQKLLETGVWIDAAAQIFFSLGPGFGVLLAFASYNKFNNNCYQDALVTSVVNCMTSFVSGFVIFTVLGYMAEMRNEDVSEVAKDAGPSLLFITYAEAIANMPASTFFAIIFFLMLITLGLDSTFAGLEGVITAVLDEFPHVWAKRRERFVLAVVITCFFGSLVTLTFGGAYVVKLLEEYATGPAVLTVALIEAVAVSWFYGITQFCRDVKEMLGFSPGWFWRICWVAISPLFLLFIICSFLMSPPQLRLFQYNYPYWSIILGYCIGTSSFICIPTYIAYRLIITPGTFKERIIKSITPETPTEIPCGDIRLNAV

[13] = biological target: T6, Adrenergic Receptor β1 (ADRB1) (Homo sapiens, UniProt P08588); assay: SAFETYscan GPCR cAMP; format: cell-based; conditions: read-out: RC50 (the source's name)
T6 construct: host or cells: cAMP Hunter cell lines
T6 sequence (P08588 whole entry): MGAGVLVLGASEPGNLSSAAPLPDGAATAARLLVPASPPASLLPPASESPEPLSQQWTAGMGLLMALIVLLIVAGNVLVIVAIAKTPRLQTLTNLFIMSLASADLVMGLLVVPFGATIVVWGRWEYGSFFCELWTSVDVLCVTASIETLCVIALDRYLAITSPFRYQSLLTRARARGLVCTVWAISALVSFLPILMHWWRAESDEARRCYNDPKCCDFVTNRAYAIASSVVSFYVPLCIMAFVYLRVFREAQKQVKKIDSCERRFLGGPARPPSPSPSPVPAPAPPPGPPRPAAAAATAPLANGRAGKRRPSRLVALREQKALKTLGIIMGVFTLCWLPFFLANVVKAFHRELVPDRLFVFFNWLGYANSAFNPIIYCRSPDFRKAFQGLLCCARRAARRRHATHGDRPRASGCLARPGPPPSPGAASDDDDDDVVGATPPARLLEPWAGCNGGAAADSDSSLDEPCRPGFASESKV

[14] = 10 μM, read-out: MCA-13 Max. Responce
[15] = read-out: RC50 (the source's name)

Cholecystokinin Receptor A (CCKAR), sequence (P32238 whole entry): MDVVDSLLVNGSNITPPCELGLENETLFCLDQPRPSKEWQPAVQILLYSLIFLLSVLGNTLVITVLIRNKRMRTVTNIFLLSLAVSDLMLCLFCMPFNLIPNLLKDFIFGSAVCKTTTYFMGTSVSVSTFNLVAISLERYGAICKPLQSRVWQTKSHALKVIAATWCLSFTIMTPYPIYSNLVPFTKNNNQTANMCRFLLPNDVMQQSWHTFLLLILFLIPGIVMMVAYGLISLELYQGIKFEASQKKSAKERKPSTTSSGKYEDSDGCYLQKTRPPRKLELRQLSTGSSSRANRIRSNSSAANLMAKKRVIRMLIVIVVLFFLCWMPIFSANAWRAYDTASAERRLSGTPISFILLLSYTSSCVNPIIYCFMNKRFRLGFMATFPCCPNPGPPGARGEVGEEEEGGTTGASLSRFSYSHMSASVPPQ
T1 sequence (P06239 whole entry): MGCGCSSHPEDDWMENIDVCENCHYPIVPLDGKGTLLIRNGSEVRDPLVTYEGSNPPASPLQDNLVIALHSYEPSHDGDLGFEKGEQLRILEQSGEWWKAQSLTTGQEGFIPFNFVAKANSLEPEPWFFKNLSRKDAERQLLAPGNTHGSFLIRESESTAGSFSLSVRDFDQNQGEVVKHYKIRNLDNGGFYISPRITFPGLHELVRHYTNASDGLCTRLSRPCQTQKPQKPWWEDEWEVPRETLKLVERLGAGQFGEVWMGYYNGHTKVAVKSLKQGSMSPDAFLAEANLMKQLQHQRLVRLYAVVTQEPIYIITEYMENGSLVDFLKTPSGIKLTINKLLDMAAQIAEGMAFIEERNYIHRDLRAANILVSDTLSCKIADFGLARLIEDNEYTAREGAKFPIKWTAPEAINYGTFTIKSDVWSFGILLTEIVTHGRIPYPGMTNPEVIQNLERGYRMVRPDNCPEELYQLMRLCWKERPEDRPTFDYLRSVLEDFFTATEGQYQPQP

C=CCC1CCCC(CCC(=O)O)C1=C (stereo not drawn) [HU-MCA-13, 3-(3-allyl-2-methylenecyclohexyl)propanoic acid]
inhibition at 10 µM [1, 14]: 12.8% | IC50 [1, 15]: > 10 µM | EC50 ([2]; Agonist): > 10 µM | IC50 ([2]; Antagonist): > 10 µM | EC50 [3]: > 10 µM | IC50 [3]: > 10 µM | EC50 [4]: > 10 µM | IC50 [4]: > 10 µM | EC50 ([5]; Agonist): > 10 µM | IC50 ([5]; Antagonist): > 10 µM | EC50 [6]: > 10 µM | IC50 [6]: > 10 µM | neurons present at 3 h after plating that survived for 48 h [7]: 58 ± 10% | IC50 [8]: > 10 µM | inhibition at 10 µM ([8]; 10 μM, Blocker, Transporter, read-out: MCA-13 Max. Responce): 3.53% | EC50 [9]: > 10 µM | IC50 [9]: > 10 µM | neurotropic effect in the presence of Trk A inhibitor K252a ([10]; 250 nM K252a, 10 μM HU-MCA-13): did not abolished | β tubulin III expression in cell bodies and neurite outgrowths (immunostaining) ([10]; 5 μM, 7 days): expressed β tubulin III | neurite outgrowth ([10]; HU-MCA-13 1 μM): 10–15% | neurite outgrowth, Df ([10]; HU-MCA-13 1 μM): 0.04 | IC50 ([11]; Blocker): > 10 µM | EC50 ([11]; Opener): > 10 µM | inhibition at 10 µM [12, 14]: 15.4% | IC50 [12, 15]: > 10 µM | EC50 ([13]; Agonist): > 10 µM | IC50 ([13]; Antagonist): > 10 µM
